Legend:
Coagulation factor XI [1] = target: T1, Coagulation factor XI (Homo sapiens, UniProt P03951); assay: Compound was tested for inhibitory activity against Coagulation factor XIa at 8 uM
Prothrombin = Prothrombin (Homo sapiens, UniProt P00734); assay: Compound was tested for inhibitory activity against Thrombin
Coagulation factor VII = target: T2, Coagulation factor VII (Homo sapiens, UniProt P08709); assay: Compound was tested for inhibitory activity against Coagulation factor VIIa
T2 sequence (P08709 whole entry): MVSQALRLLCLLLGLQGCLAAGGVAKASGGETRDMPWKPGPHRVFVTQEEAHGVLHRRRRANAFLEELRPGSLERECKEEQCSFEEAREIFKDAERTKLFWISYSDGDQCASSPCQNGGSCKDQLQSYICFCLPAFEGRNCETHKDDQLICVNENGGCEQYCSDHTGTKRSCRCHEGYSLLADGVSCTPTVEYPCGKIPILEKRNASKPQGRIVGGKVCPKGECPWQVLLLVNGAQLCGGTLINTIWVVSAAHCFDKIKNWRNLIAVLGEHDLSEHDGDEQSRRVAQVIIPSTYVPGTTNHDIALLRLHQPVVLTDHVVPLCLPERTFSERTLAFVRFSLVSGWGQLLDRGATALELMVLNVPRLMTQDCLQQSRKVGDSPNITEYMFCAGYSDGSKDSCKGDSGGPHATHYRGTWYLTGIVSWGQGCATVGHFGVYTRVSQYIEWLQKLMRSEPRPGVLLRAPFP

Plasminogen = Plasminogen (Homo sapiens, UniProt P00747); assay: Compound was tested for inhibitory activity against Plasmin
Coagulation factor XI [2] = target: T1, Coagulation factor XI; assay: Compound was tested for inhibitory activity against Coagulation factor XIa

Chain of Plasminogen (P00747 97-580 limits assumed): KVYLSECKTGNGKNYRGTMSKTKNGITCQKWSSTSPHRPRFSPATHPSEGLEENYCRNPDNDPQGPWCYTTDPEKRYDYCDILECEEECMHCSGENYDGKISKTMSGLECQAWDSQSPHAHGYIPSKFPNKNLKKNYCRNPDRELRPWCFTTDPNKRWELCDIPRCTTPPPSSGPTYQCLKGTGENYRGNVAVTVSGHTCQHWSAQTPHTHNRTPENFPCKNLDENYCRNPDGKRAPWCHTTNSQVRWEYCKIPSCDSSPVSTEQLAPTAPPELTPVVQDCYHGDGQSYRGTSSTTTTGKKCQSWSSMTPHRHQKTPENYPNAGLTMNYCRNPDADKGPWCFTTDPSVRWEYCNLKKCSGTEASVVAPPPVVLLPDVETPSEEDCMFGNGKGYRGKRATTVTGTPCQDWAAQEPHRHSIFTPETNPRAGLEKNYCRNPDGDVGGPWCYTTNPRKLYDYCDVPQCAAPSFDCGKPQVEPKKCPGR
Chain of Plasminogen (P00747 581-810 limits assumed): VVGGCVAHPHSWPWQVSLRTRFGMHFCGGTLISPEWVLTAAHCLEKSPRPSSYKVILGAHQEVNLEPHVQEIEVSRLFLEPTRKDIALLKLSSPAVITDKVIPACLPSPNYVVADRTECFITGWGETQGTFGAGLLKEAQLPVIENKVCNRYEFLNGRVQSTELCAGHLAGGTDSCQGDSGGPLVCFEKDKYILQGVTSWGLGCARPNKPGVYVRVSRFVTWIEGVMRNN
T1 sequence (P03951 19-387 limits assumed): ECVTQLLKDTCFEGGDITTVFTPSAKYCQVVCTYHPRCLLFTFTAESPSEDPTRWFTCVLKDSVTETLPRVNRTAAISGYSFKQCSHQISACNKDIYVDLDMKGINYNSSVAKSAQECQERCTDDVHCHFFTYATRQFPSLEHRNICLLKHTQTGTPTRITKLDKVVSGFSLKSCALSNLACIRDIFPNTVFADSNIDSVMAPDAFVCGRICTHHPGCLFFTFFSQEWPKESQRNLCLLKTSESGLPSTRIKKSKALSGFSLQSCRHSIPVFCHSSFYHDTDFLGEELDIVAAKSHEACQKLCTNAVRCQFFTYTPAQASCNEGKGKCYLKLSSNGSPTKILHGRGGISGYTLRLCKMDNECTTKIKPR
T1 sequence (P03951 388-625 limits assumed): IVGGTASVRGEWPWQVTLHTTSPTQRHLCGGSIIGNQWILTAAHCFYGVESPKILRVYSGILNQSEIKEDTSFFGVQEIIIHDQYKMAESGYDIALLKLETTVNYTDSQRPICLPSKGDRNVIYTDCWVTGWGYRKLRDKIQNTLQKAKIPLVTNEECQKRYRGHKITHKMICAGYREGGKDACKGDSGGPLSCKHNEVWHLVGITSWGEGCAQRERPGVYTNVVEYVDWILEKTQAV

Compound	inhibition (Coagulation factor XI [1])	IC50 (Prothrombin)	IC50 (Coagulation factor VII)	IC50 (Plasminogen)	IC50 (Coagulation factor XI [2])
C[C@]1(O)CC[C@@H]2CCC(C(=O)NCc3ccc(C(=N)N)cc3)N2C1=O (stereo partly specified)	20%	0.27 µM	> 10 µM	–	–
CC[C@@H]1CC(C(=O)NCc2ccc(C(=N)N)cc2)N2C(=O)[C@](N)(CC3=CCCCC3)C[C@H](OC)[C@H]12 (stereo partly specified)	–	0.17 µM	4.6 µM	141 µM	> 133 µM
C=C(C)C[C@]1(N)C[C@H](OC)[C@@H]2[C@H](CC)CC(C(=O)NCc3ccc(C(=N)N)cc3)N2C1=O (stereo partly specified)	–	0.38 µM	1.6 µM	37 µM	> 133 µM
CO[C@H]1C[C@@](O)(Cc2ccccc2)C(=O)N2C(C(=O)NCc3ccc(C(=N)N)cc3)CC[C@@H]12 (stereo partly specified)	–	0.11 µM	0.52 µM	71 µM	35 µM
CC[C@@H]1CC(C(=O)NCc2ccc(C(=N)N)cc2)N2C(=O)[C@@](N)(CC3=CCCCC3)C[C@H](OC)[C@H]12 (stereo partly specified)	–	–	109 µM	–	–
CC[C@@H]1CC(C(=O)NCc2ccc(C(=N)N)cc2)N2C(=O)[C@](N)(Cc3ccccc3)C[C@H](OC)[C@H]12 (stereo partly specified)	–	–	0.42 µM	11 µM	> 133 µM
N=C(N)c1ccc(CNC(=O)C2CC[C@H]3CC[C@@](O)(Cc4ccccc4)C(=O)N23)cc1 (stereo partly specified)	78%	–	1.1 µM	–	–

From ChEMBL document CHEMBL1136036, “Targeting thrombin and factor VIIa: design, synthesis, and inhibitory activity of functionally relevant indolizidinones” (Bioorg Med Chem Lett, 2002)
